# How the values were obtained:
# [1] = system: Rat pheochromocytoma cells transfected with M1 mAChR; experiment: Neurite outgrowth response; format: cell-based; details: blocked by atropine
# Procedure: Rat pheochromocytoma cells transfected with M1 mAChR cells were grown as described in Gurwitz et al, (NeuroReport 6, 485,1995). For determination of neurite outgrowth, cells plated in six-well plates were used 3–5 days after-plating. Growth factors were added 1 day after plating and muscarinic agonists were added for the last 24 hrs.
# Cells were observed under an inverted microscope. The percent of cells with neurite longer than cell diameter were scored in three random fields of several hundred cells from each well. Results were expressed as a percent of cells with neurites. Treatments were performed in triplicate cells. Both NGF (50 ng/ml) and EGF (100 ng/ml) were added 1 day after plating. Muscarinic agonists were added 24 hours before scoring.
# [2] = system: Rat pheochromocytoma cells transfected with M1 mAChR; format: cell-based; details: β-A25-35 (10 & 20 μM)
# Procedure: Confluent rat pheochromocytoma cells transfected with the M1 mAChR cultures were detached with trypsin, washed and plated in 24-well, 6-well, 60-mm or 100-mm plates that were precoated with rat tail collagen (Sigma, Israel). Several experiments were performed in serum-free medium. For 3-(4,5-dimethylthiazol-2-yl)-2,5-diphenyl-tetrazolium bromide (MTT) assay, cells (1.5×10^4) were plated in 96-well collagen-precoated plates, in serum-free medium, with or without various drugs for 24 hours. For differentiation, cells were grown in the presence of 1% FCS and 1% HS, with addition of 50 ng/ml NGF for 7 days, to cause full differentiation. […] After 7 days, cells were washed and the medium was either replaced to serum-free, or cells were detached and replated in serum-free medium. Cells in serum-free medium were treated either with Aβ peptides that were previously “aged” or with H2O2. Tested compounds were added together with the insults for the indicated time, unless otherwise stated.
# Cells were plated in 96-well plates in 100 μl medium. After exposure to various treatments, 10 μl of 5 mg/ml MTT [3-(4,5-dimethylthiazol-2-yl)-2,5-diphenyl-tetrazolium bromide; Sigma, Israel] solution in phosphate-buffered saline (PBS) was added to each well. Plates were incubated for 2 hrs at 37° C. followed by hydrocholoric acid-isopropanol addition (100 μl of 0.04N HCl/isopropanol). Plates were read using ELISA reader at a wavelength of 570 nm.
# The MTT assay measures primary early changes within the cells, reflecting the integrity of the electron transport chain and provides a readout of cellular redox activity. This test is a specific, early indicator of the mechanism of β-amyloid-mediated cell death and can be used to detect rapid inhibitory response.
# M1 mAChR = target: T1, M1 mAChR (Rattus norvegicus, UniProt P08482); experiment: α-APPs secretion in cell cultures stably transfected with the M1 mAChR; format: cell-based; details: for Emax: read-out: APPs levels, % of maximal effect of carbachol, at 100 μm
# T1 construct: expressed in transfected cells; elsewhere rat pheochromocytoma cells
# T1 sequence (P08482 1-460): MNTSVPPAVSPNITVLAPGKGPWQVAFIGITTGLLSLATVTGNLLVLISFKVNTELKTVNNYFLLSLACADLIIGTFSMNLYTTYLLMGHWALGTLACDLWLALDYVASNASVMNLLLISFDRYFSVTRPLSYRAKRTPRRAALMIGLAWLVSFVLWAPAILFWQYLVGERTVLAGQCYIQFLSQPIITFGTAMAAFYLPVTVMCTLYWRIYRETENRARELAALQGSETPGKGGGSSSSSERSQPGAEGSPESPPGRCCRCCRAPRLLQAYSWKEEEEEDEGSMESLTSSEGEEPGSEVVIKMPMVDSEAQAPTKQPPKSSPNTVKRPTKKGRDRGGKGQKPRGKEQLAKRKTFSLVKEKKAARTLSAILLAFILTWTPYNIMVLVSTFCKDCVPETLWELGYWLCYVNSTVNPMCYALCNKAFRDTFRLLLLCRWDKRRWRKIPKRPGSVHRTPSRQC
# Procedure: Cells were plated in 6 well culture plates and used at the age of 3–5 days after plating. […] Cells exposed to medium alone are referred as controls.
# Cell supernatants were collected into Eppendorff tubes containing a cocktail of protease inhibitors (5 units/ml aprotinin, […], […] and 10^−4M Phenylmethylsulfonylfluoride (PMSF, a protease inhibitor); Sigma, USA). The collected media were concentrated with Centricon tubes (Amicon, Beverly, Mass., USA) and kept frozen for α-APPs secretion determination. Equal amounts of protein (50–100 μg) were loaded and separated on 10% sodium dodecyl sulfate-polyacrylamide gel electrophoresis (SDS-PAGE). Followed by western blotting onto nitrocellulose membrane, blocked by fat-free milk, and probed for 24 hours at 4° C., with anti-Alzheimer's precursor protein, A4 monoclonal antibody 22C11 (0.25 μg/ml; Boehringer Mannheim, Germany). The nitrocellulose membranes were washed and incubated for 2 hours at room temperature with peroxidase-linked goat anti-mouse IgG antibodies (Jackson Immunoresearch, USA), followed by extensive washout and staining with enhanced chemiluminescence detection system (Amersham). Quantitative evaluation of the immunoreactive bands, on the exposed films, was performed by video-imaging densitometry (Gel-aid software; Galai Co., Israel). APPs levels were expressed as x-fold increase over basal levels.
# trihexyphenidyl rats = experiment: Passive avoidance in trihexyphenidyl-treated rats; format: in vivo, Wistar rats; details: 24 h
# Description: Trihexyphenidyl is a selective M1 muscarinic antagonist that crosses the blood brain barrier and induces memory and learning impairments (Bymaster et al. J Pharmacol Exp Ther 267: 16–24, 1993. Roldan et al Neurosci. Lett. 230: 93–96, 1997; Kimura et al Brain Res. 834: 6–12, 1999).
# Naive Wistar rats were used in the experiments below. The passive avoidance (PA) task is comprised of training (acquisition) phase and a retention phase. In the training procedure each rat was individually placed in the small illuminated compartment and after 60 sec. of familiarization/adaptation, the door to the large compartment was opened and the latency to enter was measured (Initial Latency). Immediately following entry into the dark compartment, the door was closed and inescapable foot shock (0.6 mA for 3 sec) was delivered through the grid floor. A cutoff point of 180 sec was used for initial latency. […] After the acquisition trial the rat was returned to its home cage. Retention of the passive avoidance task was measured 24 h later, by again placing the rat in the light compartment and after a 60 sec adaptation interval, the door was opened and the latency to re-enter the dark compartment was measured. A cutoff point of 300 sec was used for retention latency.
# ApoE = ApoE synthesis and secretion in primary type 1 astrocytes; format: cell-based, rat; details: up to 96 hrs
# Procedure: Primary cultures of type 1 astrocytes were derived from the cortex of Sprague Dawley rats. The compounds tested were dissolved in the culture media and added to cells for 24, 48, 72 and 96 hrs. Media was then removed and kept frozen until ApoE protein levels were evaluated by immunoblot analysis as described in Poirier et al Neuroscience 55: 81–90 (1993). Alternatively the methods of Cedazo-Minuez et al [Neurosci 105: 651–661, 2001} may be employed.
# [3] = system: rat primary cerebral cortex cell cultures; experiment: APPs secretion in rat primary cortical cell cultures; format: cell-based; details: 100 μm
# [4] = system: rat primary hippocampal cell cultures; experiment: APPs secretion in rat primary hippocampal cell cultures; format: cell-based; details: 100 μm
# tau proteins = experiment: tau phosphorylation, AT8 immunoblot; format: cell-based; details: 100 μM; to the control level
# Description: Following the experimental design of Sadot et al., J. Neurochem. […] By linking an M1 agonist to an antioxidant moiety tau phophorylation may be decreased, providing a new therapeutic strategy in a variety of CNS disease states due to combined damage due to oxidative stress and tau hyperphosphorylation.
# C57BL6J mice = experiment: Morris water maze in normal hippocampus mice; format: in vivo; details: for Reversal test, escape latency: AF150(S) 0.5 mg/kg; for Training, path length: AF150(S) only the higher dose; for Reversal test, swimming speed: AF150(S)-0.5 mg/kg, AF267B-1 mg/kg, rivastigmine, nicotine; for Training, swimming speed: mouse, in vivo
# Procedure: (§1) Each group of mice was randomly divided into 7 treatment groups (n=12-14/group). […] All tested compounds and saline were administered once a day for 4 days before starting the behavioral testing, and then for the duration of the 5-day experiment, 30 minutes before testing.
# (§2) Training: Each mouse was trained for four consecutive days, four trials (one block) per day, in which the platform position remained constant and was located in the center of the southeast quadrant of the pool. Within each block of four trials, each mouse started at each of the starting locations, but the sequence of locations was randomly selected. A trial consisted of placing a mouse by hand into the water facing the wall of the pool at one of four starting locations, north, south, east or west, around the pool's perimeter. Escape latency (the time to find the platform), path length (the distance traveled by the mouse) and speed (the swimming rate of the mouse) were recorded on each trial by the monitoring system.
# (§3) For each mouse, the path length, escape latency, and swimming speed of the four trials on each of the 4 training days were grouped into blocks (one block for each day). […] Specific comparisons were performed, using the simple main effects contrasts acalysis, which is specifically suited for testing significant interactions.
# (§4) Transfer test. During trial No. 17, on the fourth day, the platform was entirely removed from the pool (a probe trial). In this trial, the mouse was placed into the water for a limited period (30 s), and its spatial bias was measured by recording the relative distribution of escape latency and path length over the four quadrants of the pool.
# (§5) Reversal test. During trials 18–21, on the fifth day, the platform position was changed to the northwest quadrant, opposite to the training quadrant. Thus, during reversal learning, the platform location was moved relative to the configuration of objects within the room, but the pool occupied the same place within the room throughout the entire experiment. Testing of the rats and measures taken were the same as in training.
# (§6) For each mouse, the escape latency, path length and swimming speed of the reversal test (trials No. 18–21) were grouped into one block.
# C57BL/10SnJ (B10) mice = experiment: Morris water maze in small hippocampus mice; format: in vivo; details: for Training, escape latency: 0.5 and 1 mg/kg i.p. (rivastigmine, nicotine 1 mg/kg); for Training, path length: AF150(S) both doses, AF267B the higher dose; for Reversal test, escape latency / Training, swimming speed / Transfer test, spatial bias: mouse, in vivo
# Procedure: C57BL/10SnJ (B10) mice were selected due to their small hippocampi and decreased number of hippocampal pyramidal neurons; the cell loss seemed to be associated with poor spatial learning.
# as §1, §2, §3, §4, §5, §6
compound,measurement,setting,value
"CC[C@@H]1SC2(CCN(C)CC2)N(S(=O)(=O)c2ccc(F)cc2)C1=O [AF700, (S)-2-Ethyl-4-(4-fluoro-benzenesulfonyl)-8-methyl-1-thia-4,8-diaza-spiro[4.5]decan-3-one]",Neurotrophic effect,[1],neurotrophic
same,Protection against β-A25-35-induced cytotoxicity,[2],more effective than carbachol and AF267B
same,Emax,M1 mAChR,50%
"CC1OC2(CS1)CN1CCC2CC1 (centres unmarked) [AF102B, reference compound]",Retention latency,trihexyphenidyl rats; 1 mg/kg p.o.,234.4 ± 35.3 s
same,ApoE production,ApoE,inactive
"O=C1CCCN1CC#CCN1CCCC1 [Oxotremorine, oxotremorine, reference compound]","APPs secretion, activity in words",[3],inactive
same,"APPs secretion, activity in words",[4],inactive
"CCC1SC2(CCN(C)CC2)NC1=O (racemic) [AF267, 2-ethyl-8-methyl-1-thia-4,8-diaza-spiro[4.5]decan-3-one]","α-APPs secretion, comparison in words",M1 mAChR,AF267B is more efficacious and more potent than its racemate
"CCC1SC2(CCN(C)CC2)N(C(=O)CCc2c[nH]c3ccccc23)C1=O (racemic) [AF704, 2-Ethyl-4-(3-1H-indol-3-yl-propionyl)-8-methyl-1-thia-4,8-diaza-spiro[4.5]decan-3-one]",Neurotrophic effect,[1],neurotrophic
same,tau phosphorylation (AT8),tau proteins,induce dephosphorylation of tau proteins
same,Retention latency,"trihexyphenidyl rats; 0.1 mg/kg, po",214.70 ± 36.63 s
same,Retention latency,trihexyphenidyl rats; 0.5 mg/kg p.o.,283.50 ± 17.39 s
same,Retention latency,trihexyphenidyl rats; 1 mg/kg p.o.,274.44 ± 26.97 s
same,Protection against β-A25-35-induced cytotoxicity,[2],more effective than carbachol and AF267B
same,Emax,M1 mAChR,50%
"(S)-Ethyl-4-(3-1H-indol-3-yl-propionyl)-8-methyl-1-thia-4,8-diaza-spiro[4.5]decan-3-one [AF704B]",tau phosphorylation (AT8),tau proteins,induce dephosphorylation of tau proteins
same,Protection against β-A25-35-induced cytotoxicity,[2],more effective than carbachol and AF267B
"CCN(C)C(=O)Oc1cccc([C@H](C)N(C)C)c1 [rivastigmine, reference compound]","Reversal test, escape latency",C57BL6J mice,no significant effect
same,"Training, path length",C57BL6J mice,neither AF267B nor rivastigmine had any effect
same,"Reversal test, swimming speed",C57BL6J mice,significantly decreased
same,"Training, swimming speed",C57BL6J mice,significantly decreased the swimming speed
same,"α-APPs secretion, comparison in words",M1 mAChR,not effective
same,"Training, escape latency",C57BL/10SnJ (B10) mice,positively affected
same,"Training, path length",C57BL/10SnJ (B10) mice,positively affected
same,"Reversal test, escape latency",C57BL/10SnJ (B10) mice,no significant effect
same,"Training, swimming speed",C57BL/10SnJ (B10) mice,Neither rivastigmine nor nicotine had any significant effect
same,"Transfer test, spatial bias",C57BL/10SnJ (B10) mice,complete spatial bias
"CCC1SC2(CCN(C)CC2)N(CCc2c[nH]c3ccccc23)C1=O (centres unmarked) [AF703, 2-Ethyl-4-[2-(1H-indol-3-yl)-ethyl]-8-methyl-1-thia-4,8-diaza-spiro[4.5]decan-3-one]",Protection against β-A25-35-induced cytotoxicity,[2],more effective than carbachol and AF267B
"CN1CCCC1c1cccnc1 (centres unmarked) [nicotine, reference compound]","Training, escape latency","C57BL6J mice; 0.5 and 1 mg/kg i.p. (rivastigmine, nicotine 1 mg/kg)",degraded the performance
same,"Reversal test, escape latency",C57BL6J mice,no significant effect
same,"Training, path length",C57BL6J mice,no significant effect
same,"Reversal test, swimming speed",C57BL6J mice,significantly decreased
same,"Training, swimming speed",C57BL6J mice,significantly decreased the swimming speed
same,"Training, escape latency",C57BL/10SnJ (B10) mice,no improving effect
same,"Training, path length",C57BL/10SnJ (B10) mice,no significant effect
same,"Reversal test, escape latency",C57BL/10SnJ (B10) mice,no significant effect
same,"Training, swimming speed",C57BL/10SnJ (B10) mice,Neither rivastigmine nor nicotine had any significant effect
same,"Transfer test, spatial bias",C57BL/10SnJ (B10) mice,partial spatial bias

# Reference: US7049321B2, “Methods and pharmaceutical compositions for treatment of central and peripheral nervous system disorders and compounds useful therefor” (Israel Institute for Biological Research, priority 2002, dated 2006)
